Experimental data taken from ChEMBL document CHEMBL4342522 (J Med Chem, 2020).

Key:
[1] = target: T1, Bromodomain-containing protein 4 (Homo sapiens, UniProt O60885); assay: biochemical; assay type: cell-based
Description: Inhibition of human N-terminal His6 tagged BRD4 BD1 (57 to 168) residues expressed in Escherichia coli BL21(DE3) cells after 1 hr by TR-FRET assay

[2] = target: T1, Bromodomain-containing protein 4; assay: Inhibition of human N-terminal His6 tagged BRD4 BD2 (352 to 457) residues expressed in Escherichia coli BL21(DE3) cells after 1 hr by TR-FRET assay
SKM-1 = assay: Antiproliferative activity against human SKM1 cells assessed as reduction in cell viability after 5 days by CellTiter-Glo assay; assay type: functional, cell-based; settings: SKM-1, 120 h
NCI-H1299 = assay: Antiproliferative activity against human H1299 cells assessed as reduction in cell viability after 5 days by CellTiter-Glo assay; assay type: functional, cell-based; settings: NCI-H1299, 120 h
[3] = Unbound hepatic clearance in human liver microsomes; assay type: ADME, Microsome
[4] = Unbound hepatic clearance in mouse liver microsomes; assay type: ADME, Microsome
[5] = Permeability in dog MDCK cells by PAMPA; assay type: ADME, cell-based, Canis lupus familiaris; settings: read-out: permeability
[6] = Unbound hepatic clearance in rat liver microsomes; assay type: ADME, Microsome

Structure (SMILES)	Ki [1] [nM]	Ki [2] [nM]	IC50 (SKM-1) [nM]	IC50 (NCI-H1299) [nM]	CL free [3] [mL/min/kg]	CL free [4] [mL/min/kg]	Papp [5] [×10⁻⁶ cm/s]	CL free [6] [mL/min/kg]
CCNC(=O)c1cc2c(-c3cc(NC(=O)OC)ccc3Oc3c(C)cc(F)cc3C)cn(C)c(=O)c2[nH]1	290	2.9	50	2400	550	6330	0.92	–
CCNC(=O)c1cc2c(-c3cc(CO)ccc3Oc3c(C)cccc3C)cn(C)c(=O)c2[nH]1	270	1.7	65	3000	417	2330	1.69	–
CCNC(=O)c1cc2c(-c3cc(C(=O)O)ccc3Oc3c(C)cccc3C)cn(C)c(=O)c2[nH]1	300	2.8	3100	> 10000	–	–	0.74	–
CCNC(=O)c1ccc(Oc2c(C)cccc2C)c(-c2cn(C)c(=O)c3[nH]c(C(=O)NCC)cc23)c1	130	1.8	19	1500	217	317	2.63	–
CCNC(=O)c1cc2c(-c3cc(S(=O)(=O)CC)ccc3Oc3ccccc3C(C)(C)C)cn(C)c(=O)c2[nH]1	22	2.1	21	460	1620	–	5.6	1430
CCNC(=O)c1cc2c(-c3cc(S(=O)(=O)CC)ccc3Oc3c(C)cccc3Cl)cn(C)c(=O)c2[nH]1	30	0.9	6.2	670	255	–	2.73	2120
CCNC(=O)c1cc2c(-c3cc(S(=O)(=O)CC)ccc3-c3c(C)cccc3C)cn(C)c(=O)c2[nH]1	> 12000	22	1300	> 10000	550	–	9	617
CCNC(=O)c1cc2c(-c3cc(NS(=O)(=O)CC)ccc3Oc3c(C)cc(F)cc3C)cn(C)c(=O)c2[nH]1	49	1.1	42	970	317	2000	0.23	–
CCNC(=O)c1cc2c(-c3cc(S(=O)(=O)CC)ccc3Oc3c(C)cccc3C(C)(C)C)cn(C)c(=O)c2[nH]1	400	15	290	3200	–	–	–	–
COc1ccc2c(c1)[C@]13CCCC[C@@H]1[C@H](C2)N(C)CC3 [DEXTROMETHORPHAN]	–	–	–	–	–	–	–	123
CCNC(=O)c1cc2c(-c3cc(S(N)(=O)=O)ccc3Oc3c(C)cccc3C)cn(C)c(=O)c2[nH]1	66	1.1	7	3000	–	–	–	–
Cc1cc(F)cc(C)c1Oc1ccc(C(C)(C)O)cc1-c1cn(C)c(=O)c2[nH]c(C(=O)NC34CC(C3)C4)cc12	440	1.3	10	1100	2000	11800	0.97	–
Cc1cc(F)cc(C)c1Oc1ccc(C(C)(C)O)cc1-c1cn(C)c(=O)c2[nH]c(C(=O)NC(C)(C)C)cc12	310	1.3	25	1500	2170	8670	–	1450
CCNC(=O)c1cc2c(-c3cc(S(=O)(=O)CC)ccc3N3CCc4cccc(C)c43)cn(C)c(=O)c2[nH]1	9	0.5	4.2	340	–	–	–	–
CCNC(=O)c1cc2c(-c3cc(S(=O)(=O)CC)ccc3Oc3c(C)cccc3F)cn(C)c(=O)c2[nH]1	13	0.9	2.5	260	150	–	15.4	2530
CCNC(=O)c1cc2c(-c3cc(S(=O)(=O)CC)ccc3Oc3ccccc3C)cn(C)c(=O)c2[nH]1	8.4	0.8	3.3	95	142	1100	3.68	–
